Tests used:
Assay in all cases: KINOMEscan competition binding
Conditions in all cases: compound 10.0 µM
CSNK1G1 (human) = CSNK1G1 (human) (UniProt Q9HCP0)
CAMKK2 (human) = CAMKK2 (human) (UniProt Q96RR4)
PRKCH (human) = PRKCH (human) (UniProt P24723)
DAPK1 (human) = DAPK1 (human) (UniProt P53355)
MERTK (human) = MERTK (human) (UniProt Q12866)
EPHB4 (human) = EPHB4 (human) (UniProt P54760)
RET (human) = RET (human) (UniProt P07949)
STK3 (human) = STK3 (human) (UniProt Q13188)
EPHB2 (human) = EPHB2 (human) (UniProt P29323)
MAP2K4 (human) = MAP2K4 (human) (UniProt P45985)
MAP2K4 (human), sequence (P45985 whole entry, looked up): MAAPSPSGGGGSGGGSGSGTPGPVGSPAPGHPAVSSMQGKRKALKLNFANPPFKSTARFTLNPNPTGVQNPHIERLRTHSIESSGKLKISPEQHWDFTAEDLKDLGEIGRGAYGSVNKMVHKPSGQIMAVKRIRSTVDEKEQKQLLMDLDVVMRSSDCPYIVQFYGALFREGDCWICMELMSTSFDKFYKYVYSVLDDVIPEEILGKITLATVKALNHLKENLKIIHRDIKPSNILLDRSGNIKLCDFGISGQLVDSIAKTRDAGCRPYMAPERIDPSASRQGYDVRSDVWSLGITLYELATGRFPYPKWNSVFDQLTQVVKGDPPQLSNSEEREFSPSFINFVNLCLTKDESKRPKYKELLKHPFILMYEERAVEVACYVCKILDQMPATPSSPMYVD

FGFR4 (human) = FGFR4 (human) (UniProt P22455)
ADCK3 (human) = ADCK3 (human) (UniProt Q8NI60)
AKT1 (human) = AKT1 (human) (UniProt P31749)
AKT1 (human), sequence (P31749 whole entry, looked up): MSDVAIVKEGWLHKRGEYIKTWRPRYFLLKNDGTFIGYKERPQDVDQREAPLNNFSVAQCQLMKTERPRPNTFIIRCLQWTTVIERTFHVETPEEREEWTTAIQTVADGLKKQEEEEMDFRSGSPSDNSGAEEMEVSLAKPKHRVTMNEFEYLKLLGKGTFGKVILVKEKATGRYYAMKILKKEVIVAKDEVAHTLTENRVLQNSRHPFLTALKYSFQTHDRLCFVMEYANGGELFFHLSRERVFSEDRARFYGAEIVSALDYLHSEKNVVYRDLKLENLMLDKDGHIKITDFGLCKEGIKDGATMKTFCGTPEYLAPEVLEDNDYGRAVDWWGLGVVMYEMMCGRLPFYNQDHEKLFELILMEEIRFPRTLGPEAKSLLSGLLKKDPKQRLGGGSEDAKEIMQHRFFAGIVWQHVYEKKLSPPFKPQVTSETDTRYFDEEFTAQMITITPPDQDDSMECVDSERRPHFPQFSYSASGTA

ANKK1 (human) = ANKK1 (human) (UniProt Q8NFD2)
ANKK1 (human), sequence (Q8NFD2 whole entry, looked up): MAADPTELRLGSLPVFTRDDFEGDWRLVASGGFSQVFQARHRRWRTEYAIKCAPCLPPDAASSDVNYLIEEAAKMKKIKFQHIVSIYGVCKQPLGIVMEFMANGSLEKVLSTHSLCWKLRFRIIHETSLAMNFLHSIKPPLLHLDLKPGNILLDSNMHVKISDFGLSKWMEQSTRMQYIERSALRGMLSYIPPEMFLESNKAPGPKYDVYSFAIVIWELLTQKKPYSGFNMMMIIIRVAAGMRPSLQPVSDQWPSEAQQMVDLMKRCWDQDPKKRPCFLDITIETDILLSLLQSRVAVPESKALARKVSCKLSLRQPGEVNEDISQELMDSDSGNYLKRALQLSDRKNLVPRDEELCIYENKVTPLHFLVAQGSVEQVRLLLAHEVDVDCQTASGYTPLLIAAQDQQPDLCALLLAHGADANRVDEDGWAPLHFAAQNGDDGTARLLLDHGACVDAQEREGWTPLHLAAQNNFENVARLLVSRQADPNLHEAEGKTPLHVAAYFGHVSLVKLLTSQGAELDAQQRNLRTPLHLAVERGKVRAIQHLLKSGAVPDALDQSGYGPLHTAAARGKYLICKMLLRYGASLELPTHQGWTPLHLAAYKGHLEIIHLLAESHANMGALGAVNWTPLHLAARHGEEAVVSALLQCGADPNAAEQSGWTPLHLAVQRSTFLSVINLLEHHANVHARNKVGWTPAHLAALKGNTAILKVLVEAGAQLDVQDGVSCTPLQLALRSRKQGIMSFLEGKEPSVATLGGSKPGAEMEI

NEK7 (human) = NEK7 (human) (UniProt Q8TDX7)
MAP3K11 (human) = MAP3K11 (human) (UniProt Q16584)
MAP3K11 (human), sequence (Q16584 whole entry, looked up): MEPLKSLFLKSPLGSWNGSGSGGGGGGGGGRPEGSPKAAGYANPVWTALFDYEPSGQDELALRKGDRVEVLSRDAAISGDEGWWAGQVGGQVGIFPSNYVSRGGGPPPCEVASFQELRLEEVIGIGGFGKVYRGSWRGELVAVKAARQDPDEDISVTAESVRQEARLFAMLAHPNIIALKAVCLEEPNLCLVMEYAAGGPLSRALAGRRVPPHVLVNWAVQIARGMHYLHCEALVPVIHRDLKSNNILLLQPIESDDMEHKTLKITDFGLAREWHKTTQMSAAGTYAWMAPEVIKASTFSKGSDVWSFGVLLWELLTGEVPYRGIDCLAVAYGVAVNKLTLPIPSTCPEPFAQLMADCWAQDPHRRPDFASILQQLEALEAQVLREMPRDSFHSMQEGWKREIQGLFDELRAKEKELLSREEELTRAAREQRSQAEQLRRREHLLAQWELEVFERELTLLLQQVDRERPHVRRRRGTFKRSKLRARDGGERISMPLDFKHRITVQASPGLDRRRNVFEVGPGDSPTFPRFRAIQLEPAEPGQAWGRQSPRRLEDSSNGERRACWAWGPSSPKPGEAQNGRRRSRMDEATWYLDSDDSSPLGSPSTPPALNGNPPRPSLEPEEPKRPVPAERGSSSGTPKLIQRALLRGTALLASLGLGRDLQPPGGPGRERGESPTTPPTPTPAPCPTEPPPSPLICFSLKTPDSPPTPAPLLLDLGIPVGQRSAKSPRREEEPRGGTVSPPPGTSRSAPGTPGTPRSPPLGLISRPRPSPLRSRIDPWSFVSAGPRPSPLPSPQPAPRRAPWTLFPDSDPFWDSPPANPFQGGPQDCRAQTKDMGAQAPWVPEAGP

CLK4 (human) = CLK4 (human) (UniProt Q9HAZ1)
CAMK2B (human) = CAMK2B (human) (UniProt Q13554)
PIK3C2B (human) = PIK3C2B (human) (UniProt O00750)
CSNK2A2 (human) = CSNK2A2 (human) (UniProt P19784)
DDR2 (human) = DDR2 (human) (UniProt Q16832)
MAPK13 (human) = MAPK13 (human) (UniProt O15264)
MAPK13 (human), sequence (O15264 whole entry, looked up): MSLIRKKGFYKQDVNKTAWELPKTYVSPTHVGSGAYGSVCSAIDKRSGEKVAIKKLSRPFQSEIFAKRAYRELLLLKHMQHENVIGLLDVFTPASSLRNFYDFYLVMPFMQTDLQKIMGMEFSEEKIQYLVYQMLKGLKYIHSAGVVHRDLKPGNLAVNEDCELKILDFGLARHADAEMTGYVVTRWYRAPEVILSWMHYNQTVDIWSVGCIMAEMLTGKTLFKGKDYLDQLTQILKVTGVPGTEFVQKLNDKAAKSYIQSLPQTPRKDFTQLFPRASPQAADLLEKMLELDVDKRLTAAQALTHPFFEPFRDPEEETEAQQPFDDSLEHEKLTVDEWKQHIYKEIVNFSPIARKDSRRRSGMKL

RPS6KA6 KD1 (human) = RPS6KA6 KD1 (human) (UniProt Q9UK32)
CDKL2 (human) = CDKL2 (human) (UniProt Q92772)
CDKL2 (human), sequence (Q92772 whole entry, looked up): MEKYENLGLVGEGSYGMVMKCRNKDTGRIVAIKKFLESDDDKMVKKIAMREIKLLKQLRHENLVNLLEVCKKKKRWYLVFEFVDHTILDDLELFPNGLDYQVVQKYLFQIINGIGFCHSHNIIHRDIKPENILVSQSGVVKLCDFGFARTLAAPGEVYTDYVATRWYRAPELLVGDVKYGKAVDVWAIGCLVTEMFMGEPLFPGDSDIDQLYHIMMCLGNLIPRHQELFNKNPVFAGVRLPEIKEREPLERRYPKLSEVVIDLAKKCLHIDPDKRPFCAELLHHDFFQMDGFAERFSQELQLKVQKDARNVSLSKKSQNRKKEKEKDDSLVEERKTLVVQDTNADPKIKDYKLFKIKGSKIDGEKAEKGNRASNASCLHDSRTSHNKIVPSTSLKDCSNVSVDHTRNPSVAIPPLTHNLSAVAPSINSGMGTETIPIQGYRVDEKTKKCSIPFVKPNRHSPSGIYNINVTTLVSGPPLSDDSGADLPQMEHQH

MKNK2 (human) = MKNK2 (human) (UniProt Q9HBH9)
EPHA3 (human) = EPHA3 (human) (UniProt P29320)
PKMYT1 (human) = PKMYT1 (human) (UniProt Q99640)
SYK (human) = SYK (human) (UniProt P43405)
CDK17 (human) = CDK17 (human) (UniProt Q00537)
EPHA4 (human) = EPHA4 (human) (UniProt P54764)
PRKACA (human) = PRKACA (human) (UniProt P17612)
STK36 (human) = STK36 (human) (UniProt Q9NRP7)
MAP3K6 (human) = MAP3K6 (human) (UniProt O95382)
PRPF4B (human) = PRPF4B (human) (UniProt Q13523)
MAST1 (human) = MAST1 (human) (UniProt Q9Y2H9)
YSK4 (human) = YSK4 (human) (UniProt Q56UN5)

EPHB4 (human), sequence (P54760 whole entry, looked up): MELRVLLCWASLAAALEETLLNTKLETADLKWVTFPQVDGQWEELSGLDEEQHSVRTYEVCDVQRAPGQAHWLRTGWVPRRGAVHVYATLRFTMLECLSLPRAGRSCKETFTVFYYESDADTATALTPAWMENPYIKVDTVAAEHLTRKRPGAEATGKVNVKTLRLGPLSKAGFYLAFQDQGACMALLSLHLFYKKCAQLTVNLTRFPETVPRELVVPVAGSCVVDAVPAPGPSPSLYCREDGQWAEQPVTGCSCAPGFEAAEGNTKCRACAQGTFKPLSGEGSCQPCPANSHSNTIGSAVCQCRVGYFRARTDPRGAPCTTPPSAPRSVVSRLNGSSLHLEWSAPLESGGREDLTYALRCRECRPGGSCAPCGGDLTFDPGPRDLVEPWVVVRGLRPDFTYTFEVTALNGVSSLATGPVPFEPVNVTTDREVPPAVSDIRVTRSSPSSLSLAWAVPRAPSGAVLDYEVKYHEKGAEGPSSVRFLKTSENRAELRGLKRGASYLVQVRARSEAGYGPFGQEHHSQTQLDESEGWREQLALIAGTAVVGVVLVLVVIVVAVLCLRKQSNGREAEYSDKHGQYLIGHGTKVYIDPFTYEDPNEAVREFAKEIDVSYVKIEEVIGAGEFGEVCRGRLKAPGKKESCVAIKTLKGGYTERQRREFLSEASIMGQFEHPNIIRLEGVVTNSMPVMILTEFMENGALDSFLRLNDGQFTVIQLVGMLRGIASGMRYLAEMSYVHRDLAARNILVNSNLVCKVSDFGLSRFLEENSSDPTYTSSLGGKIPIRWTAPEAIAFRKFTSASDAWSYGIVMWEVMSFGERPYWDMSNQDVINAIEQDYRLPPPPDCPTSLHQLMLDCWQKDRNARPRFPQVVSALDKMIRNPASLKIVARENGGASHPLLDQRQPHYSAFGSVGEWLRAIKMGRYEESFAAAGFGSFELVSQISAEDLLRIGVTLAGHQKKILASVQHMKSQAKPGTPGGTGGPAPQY
CAMKK2 (human), sequence (Q96RR4 whole entry, looked up): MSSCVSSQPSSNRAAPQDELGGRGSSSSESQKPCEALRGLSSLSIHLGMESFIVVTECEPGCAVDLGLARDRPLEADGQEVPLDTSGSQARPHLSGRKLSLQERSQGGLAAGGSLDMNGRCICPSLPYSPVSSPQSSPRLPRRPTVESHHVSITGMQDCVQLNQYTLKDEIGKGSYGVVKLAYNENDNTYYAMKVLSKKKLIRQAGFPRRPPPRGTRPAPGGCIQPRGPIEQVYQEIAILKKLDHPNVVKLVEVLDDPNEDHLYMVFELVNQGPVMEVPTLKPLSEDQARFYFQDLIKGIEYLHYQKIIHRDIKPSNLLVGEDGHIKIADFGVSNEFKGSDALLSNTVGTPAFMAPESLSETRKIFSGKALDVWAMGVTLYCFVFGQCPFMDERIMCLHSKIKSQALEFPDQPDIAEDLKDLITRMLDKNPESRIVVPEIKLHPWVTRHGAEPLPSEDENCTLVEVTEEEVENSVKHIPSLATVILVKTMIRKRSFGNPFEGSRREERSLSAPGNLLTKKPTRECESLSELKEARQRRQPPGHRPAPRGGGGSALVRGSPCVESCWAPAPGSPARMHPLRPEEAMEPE

Row | Compound | kinase still bound, per cent of control (CAMKK2 (human)) [%] | kinase still bound, per cent of control (PRKCH (human)) [%] | kinase still bound, per cent of control (DAPK1 (human)) [%] | kinase still bound, per cent of control (MERTK (human)) [%] | kinase still bound, per cent of control (EPHB4 (human)) [%] | kinase still bound, per cent of control (RET (human)) [%] | kinase still bound, per cent of control (EPHB2 (human)) [%] | kinase still bound, per cent of control (MAP2K4 (human)) [%] | kinase still bound, per cent of control (FGFR4 (human)) [%] | kinase still bound, per cent of control (ADCK3 (human)) [%] | kinase still bound, per cent of control (AKT1 (human)) [%] | kinase still bound, per cent of control (ANKK1 (human)) [%] | kinase still bound, per cent of control (NEK7 (human)) [%] | kinase still bound, per cent of control (MAP3K11 (human)) [%] | kinase still bound, per cent of control (CLK4 (human)) [%] | kinase still bound, per cent of control (PIK3C2B (human)) [%] | kinase still bound, per cent of control (CSNK2A2 (human)) [%] | kinase still bound, per cent of control (DDR2 (human)) [%] | kinase still bound, per cent of control (MAPK13 (human)) [%] | kinase still bound, per cent of control (RPS6KA6 KD1 (human)) [%] | other results
1 | Cn1c(=O)n(-c2ccc(C(C)(C)C#N)cc2)c2c3cc(-c4cnc5ccccc5c4)ccc3ncc21 | 100 | 100 | 100 | 100 | 100 | 100 | 100 | 100 | 100 | 100 | 100 | 100 | 100 | 100 | 22 | 2.8 | 100 | 100 | 100 | 100 | kinase still bound, per cent of control (CSNK1G1 (human)): 100%; kinase still bound, per cent of control (STK3 (human)): 100%; kinase still bound, per cent of control (MAP3K6 (human)): 100%; kinase still bound, per cent of control (PRPF4B (human)): 100%; kinase still bound, per cent of control (CAMK2B (human)): 100%; kinase still bound, per cent of control (CDKL2 (human)): 28%; kinase still bound, per cent of control (MKNK2 (human)): 100%; kinase still bound, per cent of control (EPHA3 (human)): 100%; kinase still bound, per cent of control (PKMYT1 (human)): 100%; kinase still bound, per cent of control (SYK (human)): 100%; kinase still bound, per cent of control (MAST1 (human)): 100%; kinase still bound, per cent of control (CDK17 (human)): 100%; kinase still bound, per cent of control (EPHA4 (human)): 100%; kinase still bound, per cent of control (YSK4 (human)): 29%; kinase still bound, per cent of control (PRKACA (human)): 100%; kinase still bound, per cent of control (STK36 (human)): 100%
2 | CC[C@@H]1C(=O)N(C)c2cnc(Nc3ccc(C(=O)NC4CCN(C)CC4)cc3OC)nc2N1C1CCCC1 | 1.9 | 100 | 5.4 | 100 | 100 | 100 | 100 | 100 | 100 | 100 | 100 | 100 | 100 | 100 | 100 | 100 | 100 | 100 | 100 | 100 | kinase still bound, per cent of control (CDKL2 (human)): 100%; kinase still bound, per cent of control (MKNK2 (human)): 100%; kinase still bound, per cent of control (EPHA3 (human)): 100%; kinase still bound, per cent of control (PKMYT1 (human)): 100%; kinase still bound, per cent of control (CDK17 (human)): 100%; kinase still bound, per cent of control (EPHA4 (human)): 100%; kinase still bound, per cent of control (PRKACA (human)): 100%; kinase still bound, per cent of control (STK36 (human)): 100%

Now from value to molecule, other results behind:

Row | kinase still bound, per cent of control (CAMKK2 (human)) [%] | kinase still bound, per cent of control (PRKCH (human)) [%] | kinase still bound, per cent of control (DAPK1 (human)) [%] | kinase still bound, per cent of control (MERTK (human)) [%] | kinase still bound, per cent of control (EPHB4 (human)) [%] | kinase still bound, per cent of control (RET (human)) [%] | kinase still bound, per cent of control (EPHB2 (human)) [%] | kinase still bound, per cent of control (MAP2K4 (human)) [%] | kinase still bound, per cent of control (FGFR4 (human)) [%] | kinase still bound, per cent of control (ADCK3 (human)) [%] | kinase still bound, per cent of control (AKT1 (human)) [%] | kinase still bound, per cent of control (ANKK1 (human)) [%] | kinase still bound, per cent of control (NEK7 (human)) [%] | kinase still bound, per cent of control (MAP3K11 (human)) [%] | kinase still bound, per cent of control (CLK4 (human)) [%] | kinase still bound, per cent of control (PIK3C2B (human)) [%] | kinase still bound, per cent of control (CSNK2A2 (human)) [%] | kinase still bound, per cent of control (DDR2 (human)) [%] | kinase still bound, per cent of control (MAPK13 (human)) [%] | kinase still bound, per cent of control (RPS6KA6 KD1 (human)) [%] | Compound | other results
3 | 100 | 100 | 100 | 100 | 6.9 | 100 | 1.6 | 100 | 100 | 100 | 100 | 100 | 100 | 100 | 100 | 100 | 100 | 0 | 100 | 100 | Cc1ccc(C(=O)Nc2cccc(C(F)(F)F)c2)cc1Nc1cncc(C(N)=O)c1 | kinase still bound, per cent of control (CSNK1G1 (human)): 100%; kinase still bound, per cent of control (STK3 (human)): 100%; kinase still bound, per cent of control (CAMK2B (human)): 100%; kinase still bound, per cent of control (CDKL2 (human)): 100%; kinase still bound, per cent of control (MKNK2 (human)): 100%; kinase still bound, per cent of control (EPHA3 (human)): 8.8%; kinase still bound, per cent of control (PKMYT1 (human)): 100%; kinase still bound, per cent of control (SYK (human)): 100%; kinase still bound, per cent of control (CDK17 (human)): 100%; kinase still bound, per cent of control (EPHA4 (human)): 6.8%; kinase still bound, per cent of control (PRKACA (human)): 100%; kinase still bound, per cent of control (STK36 (human)): 100%
4 | 10 | 100 | 22 | 100 | 100 | 100 | 100 | 100 | 100 | 100 | 100 | 100 | 12 | 100 | 12 | 100 | 100 | 100 | 100 | 100 | C=CC(=O)Nc1cccc(Oc2nc(Nc3ccc(N4CCN(C)CC4)cc3OC)ncc2Cl)c1 | kinase still bound, per cent of control (CSNK1G1 (human)): 100%; kinase still bound, per cent of control (STK3 (human)): 100%; kinase still bound, per cent of control (CAMK2B (human)): 100%; kinase still bound, per cent of control (CDKL2 (human)): 100%; kinase still bound, per cent of control (MKNK2 (human)): 2%; kinase still bound, per cent of control (EPHA3 (human)): 100%; kinase still bound, per cent of control (PKMYT1 (human)): 100%; kinase still bound, per cent of control (SYK (human)): 100%; kinase still bound, per cent of control (CDK17 (human)): 100%; kinase still bound, per cent of control (EPHA4 (human)): 100%; kinase still bound, per cent of control (PRKACA (human)): 100%; kinase still bound, per cent of control (STK36 (human)): 100%
5 | 24 | 100 | 26 | 100 | 100 | 100 | 100 | 100 | 100 | 100 | 100 | 100 | 100 | 100 | 100 | 100 | 100 | 100 | 100 | 100 | COc1cc(C(=O)NC2CCN(C)CC2)ccc1Nc1ncc2c(n1)N(C1CCCC1)C(C)CC(=O)N2C (stereo not given) | kinase still bound, per cent of control (CSNK1G1 (human)): 100%; kinase still bound, per cent of control (STK3 (human)): 100%; kinase still bound, per cent of control (CAMK2B (human)): 100%; kinase still bound, per cent of control (CDKL2 (human)): 100%; kinase still bound, per cent of control (MKNK2 (human)): 100%; kinase still bound, per cent of control (EPHA3 (human)): 100%; kinase still bound, per cent of control (PKMYT1 (human)): 100%; kinase still bound, per cent of control (SYK (human)): 100%; kinase still bound, per cent of control (CDK17 (human)): 100%; kinase still bound, per cent of control (EPHA4 (human)): 100%; kinase still bound, per cent of control (PRKACA (human)): 100%; kinase still bound, per cent of control (STK36 (human)): 100%

From the kinase profiling compilation of Christmann-Franck et al. (2016)
